Patent US5602099A, “δ opioid receptor antagonists” (Aktiebolaget Astra, priority 1993, dated 1997)
Where two headings read alike, the source gives them in different places. Peptide text beside a SMILES is read from it.

Target: T1, δ opioid receptors (Mus musculus, UniProt P32300)
T1 construct: Bioassays Using Isolated Organ Preparations; from tissue; host or cells: mouse vas deferens (isolated organ)
Assay: Mouse vas deferens (MVD) bioassay, antagonism of electrically evoked contraction inhibition by δ-selective agonists
Type: tissue-based
Details: MVD assay, means of 3-8 determinations
Text: a) Biosassys based on inhibition of electrically evoked contractions of the mouse vas deferens (MVD) and of the guinea pig ileum (GPI). In the GPI assay the opioid effect is primarily mediated by μ opioid receptors, whereas in the MVD assay the inhibition of the contractions is mostly due to interaction with δ opioid receptors.
The GPI and MVD bioassays were carded out as reported in P. W. Schiller et al., Biochem. Biophys. Res. Commun 85, 1332-1338 (1978) and J. Di Maio et al., J. Med. Chem. 25, 1432-1438 (1982). A log dose-response curve was determind with [Leu^5 ]enkephalin as standard for each ileum and vas preparation, and IC50 values of the compounds being tested were normalized according to A. A Waterfield et al., Eur. J. Pharmacol. 58, 11-18 (1979). […] These determinations were made with the MVD assay, using three different δ-selective agonists ([Leu^5 ] enkephalin, DPDPE and [D-Ala^2 ]deltorphin I].

[1] = Ke (nM) against DPDPE, δ agonist DPDPE
[2] = Ke (nM) against [D-Ala2]deltorphin I, δ agonist [D-Ala2]deltorphin I
[3] = Ke (nM) against [Leu5]Enkephalin, δ agonist [Leu5]enkephalin
[4] = δ agonist DPDPE, read-out: Ke (nM) against DPDPE
[5] = δ agonist [D-Ala2]deltorphin I, read-out: Ke (nM) against [D-Ala2]deltorphin I
[6] = δ agonist [Leu5]enkephalin, read-out: Ke (nM) against [Leu5]Enkephalin

T1 sequence (P32300 whole entry): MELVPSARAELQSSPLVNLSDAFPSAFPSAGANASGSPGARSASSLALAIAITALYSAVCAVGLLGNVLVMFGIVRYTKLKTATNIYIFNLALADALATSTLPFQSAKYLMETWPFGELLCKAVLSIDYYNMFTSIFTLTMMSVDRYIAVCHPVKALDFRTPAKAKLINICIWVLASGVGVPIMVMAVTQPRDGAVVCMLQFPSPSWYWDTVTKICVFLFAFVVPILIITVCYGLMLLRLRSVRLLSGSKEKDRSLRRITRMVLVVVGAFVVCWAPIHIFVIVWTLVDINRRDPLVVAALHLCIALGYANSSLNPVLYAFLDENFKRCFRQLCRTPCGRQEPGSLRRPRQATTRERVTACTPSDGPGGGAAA

`N[C@@H](Cc1ccc(O)cc1)C(=O)N1Cc2ccccc2C[C@H]1C(=O)NC1(C(=O)N[C@@H](Cc2ccccc2)C(=O)O)CCc2ccccc2C1` (stereo partly drawn) [HTyrTicAtcPheOH, H-Tyr-Tic-Atc-Phe-OH] (HELM PEPTIDE1{Y.[Tic].[O=C(C1(N[*:1])CCc2ccccc2C1)[*:2]].F}$$$$V2.0) was tested, and the Kb [1] was 1.85 nM, the Kb [2] was 0.927 nM and the Kb [3] was 1.63 nM.
`N[C@@H](Cc1ccc(O)cc1)C(=O)N1Cc2ccccc2C[C@H]1C(=O)N[C@@H](Cc1ccccc1)C(=O)N[C@@H](Cc1ccc([N+](=O)[O-])cc1)C(=O)O` [HTyrTicPhePhe(pNO2)OH, H-Tyr-Tic-Phe-Phe(pNO2)-OH] (HELM PEPTIDE1{Y.[Tic].F.[O=C(O)[C@H](Cc1ccc([N+](=O)[O-])cc1)N[*:1]]}$$$$V2.0) was tested, and the Kb [1] was 3.3 nM, the Kb [2] was 2.79 nM and the Kb [3] was 3.62 nM.
`CCCC[C@H](NC(=O)[C@H](CC(C)C)NC(=O)[C@H](Cc1ccccc1)NC(=O)[C@H](Cc1ccccc1)NC(=O)[C@@H]1Cc2ccccc2CN1C(=O)[C@@H](N)Cc1ccc(O)cc1)C(=O)N[C@@H](CC(=O)O)C(N)=O` [HTyrTicPhePheLeuNleAspNH2, H-Tyr-Tic-Phe-Phe-Leu-Nle-Asp-NH2] (HELM PEPTIDE1{Y.[Tic].F.F.L.[Nle].D.[am]}$$$$V2.0) showed a Kb [1] of 10.4 nM, a Kb [2] of 10.8 nM and a Kb [3] of 21.4 nM.
`N[C@@H](Cc1ccc(O)c(Cl)c1)C(=O)N1Cc2ccccc2C[C@H]1C(=O)N[C@@H](Cc1ccccc1)C(=O)N[C@@H](Cc1ccccc1)C(=O)O` [HTyr(3-Cl)TicPhePheOH, H-Tyr(3-Cl)-Tic-Phe-Phe-OH] (HELM PEPTIDE1{[N[C@@H](Cc1ccc(O)c(Cl)c1)C(=O)[*:2]].[Tic].F.F}$$$$V2.0) was tested, and the Kb [1] was 20.4 nM, the Kb [2] was 19.9 nM and the Kb [3] was 18 nM.
`N[C@@H](Cc1ccc(O)c(Br)c1)C(=O)N1Cc2ccccc2C[C@H]1C(=O)N[C@@H](Cc1ccccc1)C(=O)N[C@@H](Cc1ccccc1)C(=O)O` [HTyr(3-Br)TicPhePheOH, H-Tyr(3-Br)-Tic-Phe-Phe-OH] (HELM PEPTIDE1{[N[C@@H](Cc1ccc(O)c(Br)c1)C(=O)[*:2]].[Tic].F.F}$$$$V2.0) gave a Kb [1] of 31.3 nM, a Kb [2] of 23.9 nM and a Kb [3] of 18.2 nM.
For `N[C@@H](Cc1ccc(O)cc1)C(=O)N1Cc2ccccc2C[C@H]1CN[C@@H](CCc1ccccc1)C(=O)N[C@@H](Cc1ccccc1)C(=O)O` [HTyrTic.psi.[CH2NH]HfePheOH, H-Tyr-Tic-.PSI.[CH2 --NH]Hfe-Phe-OH], the Kb [1] was 2.64 nM, the Kb [2] was 1.9 nM and the Kb [3] was 2.22 nM.
Work on `Cc1cc(O)cc(C)c1C[C@H](N)C(=O)N1Cc2ccccc2C[C@H]1C(=O)N[C@@H](Cc1ccccc1)C(=O)N[C@@H](Cc1ccccc1)C(=O)O` [HDmtTicPhePheOH, H-Dmt-Tic-Phe-Phe-OH] (HELM PEPTIDE1{[Cc1cc(O)cc(C)c1C[C@H](N)C(=O)[*:2]].[Tic].F.F}$$$$V2.0) yielded a Kb [4] of 0.196 nM, a Kb [5] of 0.13 nM and a Kb [6] of 0.169 nM.
`CN[C@@H](Cc1ccc(O)cc1)C(=O)N1Cc2ccccc2C[C@H]1CN[C@@H](CCc1ccccc1)C(=O)N[C@@H](Cc1ccccc1)C(=O)O` [Tyr(NMe)-Tic.psi.[CH2NH]HfePheOH, Tyr(NMe)-Tic.PSI.[CH2 --NH]Hfe-Phe-OH] gave a Kb [1] of 0.902 nM, a Kb [2] of 0.418 nM and a Kb [3] of 0.78 nM.
With `O=C(O)[C@H](Cc1ccccc1)NC(=O)[C@H](Cc1ccccc1)NC(=O)[C@@H]1Cc2ccccc2CN1C(=O)[C@H](Cc1ccc(O)cc1)NCC1CC1` [Tyr(N^α Cpm)-TicPhePheOH, Tyr(N^α Cpm)-Tic-Phe-Phe-OH] the Kb [1] was 28.2 nM, the Kb [2] was 32.5 nM and the Kb [3] was 29.6 nM.
Work on `NC(=O)[C@H](CO)NC(=O)[C@@H]1CCCN1C(=O)[C@H](Cc1ccc(O)cc1)NC(=O)[C@H](Cc1ccccc1)NC(=O)[C@H](Cc1c[nH]c2ccccc12)NC(=O)[C@@H]1Cc2ccccc2CN1C(=O)[C@@H](N)Cc1ccc(O)cc1` [HTyrTicTrpPheTyrProSerNH2, H-Tyr-Tic-Trp-Phe-Tyr-Pro-Ser-NH2] (HELM PEPTIDE1{Y.[Tic].W.F.Y.P.S.[am]}$$$$V2.0) yielded a Kb [1] of 3.65 nM and a Kb [3] of 4.2 nM.
Work on `N[C@@H](Cc1ccc(O)c(F)c1)C(=O)N1Cc2ccccc2C[C@H]1C(=O)N[C@@H](Cc1ccccc1)C(=O)N[C@@H](Cc1ccccc1)C(=O)O` [HTyr(3-F)TicPhePheOH, H-Tyr(3-F)-Tic-Phe-Phe-OH] (HELM PEPTIDE1{[N[C@@H](Cc1ccc(O)c(F)c1)C(=O)[*:2]].[Tic].F.F}$$$$V2.0) yielded a Kb [1] of 13 nM, a Kb [2] of 8.73 nM and a Kb [3] of 5.88 nM.
In the case of `N[C@@H](Cc1ccc(O)cc1)C(=O)N1Cc2ccccc2C[C@H]1C(=O)N[C@@H](Cc1c[nH]c2ccccc12)C(=O)N[C@@H](Cc1ccc([N+](=O)[O-])cc1)C(=O)O` [HTyrTicTrpPhe(pNO2)OH, H-Tyr-Tic-Trp-Phe(pNO2)-OH] (HELM PEPTIDE1{Y.[Tic].W.[O=C(O)[C@H](Cc1ccc([N+](=O)[O-])cc1)N[*:1]]}$$$$V2.0), the Kb [1] is reported as 4.4 nM, the Kb [2] is reported as 2.27 nM and the Kb [3] is reported as 1.83 nM.
`NC(=O)[C@H](CO)NC(=O)[C@@H]1CCCN1C(=O)[C@H](Cc1ccc(O)cc1)NC(=O)[C@H](Cc1ccc([N+](=O)[O-])cc1)NC(=O)[C@H](Cc1c[nH]c2ccccc12)NC(=O)[C@@H]1Cc2ccccc2CN1C(=O)[C@@H](N)Cc1ccc(O)cc1` [HTyrTicTrpPhe(pNO2)TyrProSerNH2, H-Tyr-Tic-Trp-Phe (pNO2) -Tyr-Pro-Ser-NH2] (HELM PEPTIDE1{Y.[Tic].W.[O=C([C@H](Cc1ccc([N+](=O)[O-])cc1)N[*:1])[*:2]].Y.P.S.[am]}$$$$V2.0) gave a Kb [1] of 2.48 nM, a Kb [2] of 3.91 nM and a Kb [3] of 3.68 nM.
For `Cc1cc(O)cc(C)c1C[C@H](N)C(=O)N1Cc2ccccc2C[C@H]1C(=O)N[C@@H](Cc1ccccc1)C(=O)N[C@@H](Cc1ccccc1)C(N)=O` [HDmtTicPhePheNH2, H-Dmt-Tic-Phe-Phe-NH2] (HELM PEPTIDE1{[Cc1cc(O)cc(C)c1C[C@H](N)C(=O)[*:2]].[Tic].F.F.[am]}$$$$V2.0), the Kb [2] was 0.26 nM, the Kb [3] was 0.221 nM and the Kb [4] was 0.209 nM.
Molecule `CCN(CC)[C@@H](Cc1ccc(O)cc1)C(=O)N1Cc2ccccc2C[C@H]1C(=O)N[C@@H](Cc1ccccc1)C(=O)N[C@@H](Cc1ccccc1)C(=O)O` [Tyr(N^α Et2)-TicPhePheOH, Tyr(N^α Et2)-Tic-Phe-Phe-OH] has a Kb [1] of 0.893 nM, a Kb [2] of 2.3 nM and a Kb [3] of 3.39 nM.
For `N[C@@H](Cc1ccc(O)cc1)C(=O)N1Cc2ccccc2C[C@H]1C(=O)N[C@@H](Cc1c[nH]c2ccccc12)C(=O)O` [HTyrTicTrpOH] (HELM PEPTIDE1{Y.[Tic].W}$$$$V2.0), the Kb [1] was 6.23 nM, the Kb [2] was 5.36 nM and the Kb [3] was 10.6 nM.
Work on `N[C@@H](Cc1ccc(O)cc1)C(=O)N1Cc2ccccc2C[C@H]1C(=O)N[C@@H](Cc1ccccc1)C(=O)N[C@@H](Cc1ccccc1)C(=O)O` [HTyrTicPhePheOH, H-Tyr-Tic-Phe-Phe-OH] (HELM PEPTIDE1{Y.[Tic].F.F}$$$$V2.0) yielded a Kb [4] of 4.8 nM, a Kb [5] of 2.96 nM and a Kb [6] of 5.86 nM.
